How the values were obtained:
Pin1 protein = experiment: Confirmation of Pin1 expression level in the intestinal tract of DSS mice (Example 7); type: in vivo; conditions: after 7 days of administration
Method: The expression level of Pin1 in the intestinal tract was measured for each mouse subjected to the therapeutic experiment in Example 5.
The present results also support that the compound synthesized in Example 2-7 (H-31) prevents development of ulcerative colitis.

[1] = tested on: model animals of ulcerative colitis (3% DSS); experiment: Therapeutic experiment using model animals of ulcerative colitis 2 (Example 6); type: in vivo, C57BL6 mice; conditions: DSS mice, 1 mg/kg/day
Method: To C57BL6 mice of 8 weeks old, 3% DSS (dextran sulfate sodium)-containing water or water (control) was administered by allowing the mice to drink it for 7 days. […] On Day 7 after the beginning of the administration, the body weight of each mouse was measured, and the large intestine was removed from the mouse, followed by carrying out histological study. […] In addition, an experiment for measuring the colon length was carried out.

Pin1 = target: T1, Pin1 (Homo sapiens, UniProt Q13526); experiment: Evaluation of inhibitory activity on function of Pin1: cell assay using degree of AMPK phosphorylation as index; type: cell-based; set-up: key to Pin1 inhibitory activity: −: Promotion of AMPK phosphorylation was not (or hardly) found.; +: Phosphorylation of AMPK was promoted, but the promotion was weaker than that by C1.; ++: Phosphorylation of AMPK was promoted to the same degree as in the case of C1.; +++: Phosphorylation of AMPK was promoted more strongly than in the case of C1; conditions: 293T cells
T1 construct: endogenous in cells; host or cells: 293T cells
Method: In order to evaluate the inhibitory activities of the compounds of the present invention synthesized in Example 2 on the function of Pin1, an assay using cells was carried out according to a method previously developed by the present inventors (Yusuke Nakatsu et al., Journal of Biological Chemistry, 2015, Vol. 290, No. 40, pp. 24255-24266), using as an index the degree of phosphorylation of AMPK (AMP-activated protein kinase), whose phosphorylation is known to be suppressed by Pin1.
Briefly, 293T cells were plated on a 24-well plate coated with collagen. Forty-eight hours later, each compound (100 μM) synthesized in the Example was added to the plate, and the plate was left to stand in an incubator for 30 minutes. Thereafter, 10 mM 2-DG was added to the plate, and, 1 hour later, each sample was collected using a buffer containing mercaptoethanol and SDS.
According to conventional methods, SDS-PAGE and blotting were carried out, and then blocking was carried out with 3% BSA for 1 hour. Thereafter, reaction was carried out at normal temperature for 1 hour with each of a pAMPK antibody (Cell signaling 1:2000, Can get signal solution 1: diluted by Toyobo) as a primary antibody, and an HRP-linked anti rabbit IgG (GE healthcare 1:4000, Can get signal solution 2: diluted by Toyobo) as a secondary antibody, to perform detection.
As a compound to be compared, C1: (R)-2-(5-(4-methoxyphenyl)-2-methylfuran-3-carboxamido)-3-(naphthalene-6-yl)propanoic acid, which is an already reported Pin1 inhibitor, was used.
In FIG. 3, “-” indicates the degree of phosphorylation of AMPK in a case where no Pin1 inhibitor was added, and “C1”, “H-30”, “H-31”, “H-32”, and “H-33” indicate the degrees of phosphorylation of AMPK in cases where the respective Pin1 inhibitors were added. […] The inhibitory activity on the function of Pin1 was rated as follows based on comparison with the degree of inhibition by C1.

[2] = tested on: model animals of ulcerative colitis (3% DSS); experiment: Therapeutic experiment using model animals of ulcerative colitis (Example 4); type: in vivo, C57BL6 mice; conditions: DSS mice, compound 1 mg/kg/day
Method: To C57BL6 mice of 8 weeks old, 3% DSS (dextran sulfate sodium)-containing water or water (control) was administered by allowing the mice to drink it for 7 days. For the mice to which DSS was administered, groups in which 5-ASA (compound name: 5-aminosalicylic acid; generic name: Mesalazine), which is a therapeutic agent for inflammatory bowel diseases, the compound synthesized in Example 2-7 (H-31), or the compound synthesized in Example 2-36 (H-179) was administered, and a group in which no compound was administered were provided. On Day 7 after the beginning of the administration, the body weight of each mouse was measured, and the large intestine was removed from the mouse, followed by carrying out histological study. […] In FIGS. 4(A) and (B), “normal” indicates a case where water was administered, and “DSS” indicates cases where DSS-containing water was administered. “non” indicates a case where no compound was administered, and “5-ASA”, “H-31”, and “H-179” indicate cases where the respective compounds were administered. The dose was as follows: 5-ASA, 300 mg/kg/day; H-31, 1 mg/kg/day; H-179, 1 mg/kg/day. As shown in FIG. 4(A), weight loss due to inflammation of the intestine was found in the cases where DSS was administered.

colon cancer model mice = experiment: Therapeutic experiment for colon cancer in AOM/DSS colon cancer model mice (Example 9); type: in vivo; conditions: oral 1.25 mg/kg/day 3 times a week from Day 6, Day 89, vs control
Method: On Day 1, azoxymethane (AOM) was intraperitoneally administered at 12 mg/kg to laboratory mice. Thereafter, from Day 6, a course of 5 days of oral administration of 3% dextran sulfate sodium (DSS) and a period of 16 days without administration of DSS was repeated 4 times to prepare colon cancer model mice having cancer caused by inflammation of the large intestine. A group in which a compound of the present invention (H-31) was administered and a group without administration of the compound of the present invention (control) were provided. In the group in which the compound of the present invention (H-31) was administered, oral administration was carried out 3 times a week at 1.25 mg/kg/day from Day 6.
On Day 89, the colon cancer model mice were dissected, and the number of colon cancer developed and the tumor area per colon cancer (total tumor area/number of tumors) were measured.

NASH model mice = experiment: Therapeutic experiment for NASH in MCDD-fed NASH model mice (Example 8); type: in vivo, mice (C57BL/6J); conditions: NASH mice fed MCDD 8 weeks, intraperitoneal 2.5 mg/kg/day 3 times a week
Method: In order to test the therapeutic effect of a compound of the present invention on non-alcoholic steatohepatitis (NASH), an animal experiment using NASH model mice was carried out.
The NASH model mice (hereinafter referred to as “NASH mice”) were prepared by feeding male individuals of laboratory mice (C57BL/6J) with methionine-choline-deficient diet (MCDD) for 8 weeks to allow accumulation of fat in the liver. The animal experiment was carried out for a group in which a compound of the present invention (H-31) was intraperitoneally administered 3 times a week at 2.5 mg/kg/day during the 8 weeks of the MCDD feeding period, and a group in which no administration was carried out. In addition, in order to provide control mice, male individuals of laboratory mice (C57BL/6J) were fed with normal diet for 8 weeks.
The results of measurement of the blood AST (GOT) level and the blood ALT (GPT) level in these mice are shown in FIGS. 8(A) and (B), respectively.

[3] = tested on: model animals of ulcerative colitis (DSS); experiment: Comparison between oral and intraperitoneal administration in DSS mice (Example 5); type: in vivo; conditions: 1 mg/kg/day
Method: A compound whose therapeutic effect on ulcerative colitis could be confirmed in Example 4 (H-31) was studied on the difference in its effect depending on the administration method. […] In FIGS. 5(A) and (B), “normal” indicates a case where water was administered, and “DSS” indicates cases where DSS-containing water was administered. “non” indicates a case where no compound was administered, and “H-31” indicates a case where the compound synthesized in Example 2-7 was administered.

T1 sequence (Q13526 whole entry): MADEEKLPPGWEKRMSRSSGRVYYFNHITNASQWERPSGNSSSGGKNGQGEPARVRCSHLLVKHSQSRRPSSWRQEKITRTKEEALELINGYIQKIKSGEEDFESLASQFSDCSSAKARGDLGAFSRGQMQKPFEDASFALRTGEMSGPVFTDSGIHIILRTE

In the case of `O=C(O[C@H](Cc1ccc2ccccc2c1)C(=O)O)C1c2ccccc2-c2ccccc21` [Compound H-31], the “increase in the Pin1 protein level in the intestinal tract” value (Pin1 protein) is reported as “could be significantly ameliorated”, the “tissue damage in the large intestine (stained section)” value [1] is reported as “tissue damage in the large intestine was hardly found” and the “change in the colon length” value ([1]; vs no compound) is reported as “the change in the colon length was significantly smaller”. For the same compound, the weight loss ([1]; vs no compound) was “the weight loss was significantly smaller”, the Pin1 inhibitory activity (Pin1; compound 100 μM, 10 mM 2-DG, pAMPK immunoblot rated by comparison with C1) was “+++” and the “inhibitory activity on Pin1 (stated in words)” value (Pin1; cell-based experiment, 100 μM) was “both have inhibitory activities on Pin1”. For the same compound, the “tissue damage in the large intestine (stained section)” value ([2]; Day 7) was “tissue damage in the large intestine was hardly found”, the “weight loss (body weight as ratio to body weight before administration)” value ([2]; Day 7, vs no compound) was “the weight loss was significantly smaller” and the “number of colon cancer developed” value (colon cancer model mice) was “no significant difference in the number of colon cancer”. The “tumor area per colon cancer (total tumor area/number of tumors)” value (colon cancer model mice) was “reduction of the tumor area could be found”, the “blood ALT (GPT) level” value (NASH model mice) was “the ALT value decreased” and the “blood AST (GOT) level” value (NASH model mice) was “the AST value decreased”. The “fibrosis of liver tissue (Azan staining)” value (NASH model mice) was “fibrosis of liver tissue was remarkably suppressed”, the body weight change ([3]; intraperitoneal administration) was “no significant difference was found” and the body weight change ([3]; oral administration) was “a significant decrease in the body weight change”.
